Measured values: patent US7122335B1, “Compounds and methods to enhance rAAV transduction” (priority 1999, dated 2006)
Where “and” joins values, the source holds several entries; their conditions need not be identical. Equal entries are not always repeated. Peptide text beside a SMILES is read from it. * marks the point of attachment. Cbz = O=C(OCc1ccccc1)*

Columns and labels:
mouse lung = assay: rAAV (AV.LacZ) gene transfer in mouse lung in vivo; parameters: species or system BALB/c mice
Experimental: FIGS. 17A–F. Persistent induction of rAAV mediated gene transfer in mouse conducting airways by proteasome inhibitors. FIGS. 17A–C) Recombinant AV.Alkphos (5×10^10 particles) was administered to mouse lung either as virus alone in PBS or virus in combination with 40 μM LLnL in PBS. Virus was directly instilled into […] mice trachea with a 30 G needle in a total volume of 30 μl. To insure the spread of the virus in mouse lung, 50 μl air was pumped into lung through the same syringe immediately after virus was administered. Ninety days after infection, lungs were harvested intact and fixed in 4% paraformaldehyde followed by cryosection. AAV-mediated transgene expression was evaluated by 10 μm tissue sections staining for heat-resistant alkaline phosphatase. FIG. 17A: infection with AAV alone; FIGS. 17B and 17C: infection with AAV supplemented with 40 µM of LLnL. FIGS. 17D–F) 6 week old BALB/c mouse (N=3 animals in each group) were infected with 5×10^10 DNA particles of AV.LacZ in the absence or presence of 400 μM Z-LLL by nasal instillation. Representative examples of histochemical staining for LacZ expression in large bronchioles 150 days post-infection are shown in FIGS. 17D and 17E. The right and left sides of each panel represent Nomarski and bright field photomicrographs, respectively. The 100 μm scale bar applies to all photomicrographs. The mean (+/−SEM) percentage of LacZ expressing epithelial cells at various levels of the airway was quantitated using the morphometric procedures outlined in the methods, and the analysis represents results from three independent animals for each group (FIG. 17F).
In vivo studies in mice. Animal studies were performed in accordance with the institutional guidelines of the University of Iowa To determine the effect of the proteasome inhibitor on AAV mediated gene transfer in mouse lung, 6 week-old BALB/c mice were lightly anesthetized using a methoxyflurane chamber. AV.LacZ (5×10^10 particles) was administered alone or with 400 μM Z-LLL in a 10 μl instillation by nasal aspiration as described by Walters et al. (2000). To prevent unforeseen toxicity of DMSO solvent, the proteasome inhibitor Z-LLL was dissolved in ethanol as a 40 mM stock solution and was included in the viral inoculum at 1% final concentration. Viral infection controls in the absence of Z-LLL also contained a 1% final concentration of ethanol. […] The trachea was intubated and instilled at 10 cm of water pressure with the following solutions in order: PBS, 0.5% glutaraldehyde, 1 mM MgCl2/PBS, and finally X-gal staining reagent for an overnight incubation at room temperature. The X-gal stained mouse lungs were then post fixed in 10% neutral buffered formalin for 48 hours at room temperature and cryopreserved in serial 10%, 20% and 30% sucrose/PBS solutions. Lungs (N=3 for each condition) were embedded in OCT (optimal cutting temperature; Baxter, Warrendale, Pa.) and 15 μm serially sections were analyzed for gene transfer by calculating the percentage of positive cells in the airway epithelium. The diameter of the airway was recorded for classification (>360 μm, 260–350 μm, 160–250 μm, <150 μm) of results following morphometric analysis. Greater than 150 airway cross-sections were quantified for each experimental condition.

Solubility in ethanol = assay type: physicochemical

Row | Compound | airway cells transduced by AV.LacZ, average (mouse lung; 400 μM Z-LLL intranasal with 5×10^10 particles, 150 days) | airway cells in the smaller bronchioles (<150 mm) expressing β-galactosidase (mouse lung; 400 μM Z-LLL, 150 days) | transduction of lung, in words (mouse lung; 400 μM Z-LLL, 150 days) | transduction efficiency in larger bronchioles (>350 mm), mean % of airway epithelium (mouse lung; 400 μM Z-LLL, 150 days post-infection) | transgene expression (X-gal staining) in lung (mouse lung; 3 and 10 days post infection) | solubility in ethanol (Solubility in ethanol)
1 | CC(C)C[C@@H](C=O)NC(=O)[C@H](CC(C)C)NC(=O)[C@H](CC(C)C)NC(=O)OCc1ccccc1 [Z-LLL, N-carbobenzoxyl-L-leucinyl-L-leucinyl-L-leucinal] (Cbz-Leu-Leu-Leu-aldehyde) | about 5.88% | 1.37±0.41% | significant transduction was achieved | 10.36±1.63% and 10.36+/−1.63% | no detectable transgene expression | 
2 | N-acetyl-L-leucinyl-L-leucinal-L-norleucinal [LLnL] |  |  |  |  |  | poor solubility
